For assay [1], the target named is T1, CXCR4 (Homo sapiens, UniProt P61073). The settings on record: ref [12], cited from earlier work; for IC50: read-out: IC50 (anti-CXCR4 mAb 12G5 competitive assay), previously reported, anti-CXCR4 mAb 12G5 competitive assay.
Assay [2] has as its target T1, CXCR4. The settings on record: 12G5 CXCR4 competitive binding assay.
The next assay concerns HIV. The settings on record: ref [12]; cited from earlier work.

The source of these data is publication PMC3752463 (Biochemical and biophysical research communications, 2013).

Square brackets hold non-standard residues; d marks the D form. Ends that are not written are not given here.

T1 sequence (P61073 whole entry): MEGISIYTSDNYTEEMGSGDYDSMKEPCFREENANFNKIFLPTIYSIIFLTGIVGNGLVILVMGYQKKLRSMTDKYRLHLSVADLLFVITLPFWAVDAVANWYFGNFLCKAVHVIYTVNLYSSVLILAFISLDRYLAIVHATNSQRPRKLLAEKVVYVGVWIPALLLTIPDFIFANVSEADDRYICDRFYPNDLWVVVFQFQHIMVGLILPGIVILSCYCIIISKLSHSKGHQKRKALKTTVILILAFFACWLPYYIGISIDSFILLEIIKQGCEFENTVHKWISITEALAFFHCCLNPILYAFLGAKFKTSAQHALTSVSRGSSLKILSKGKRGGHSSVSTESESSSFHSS

As to “LGASWHRPDK ([dL]G[dA][dS][dW][dH][dR][dP][dD][dK]-NH2; N-terminus assumed; SMILES CC(C)C[C@@H](N)C(=O)NCC(=O)N[C@H](C)C(=O)N[C@H](CO)C(=O)N[C@H](Cc1c[nH]c2ccccc12)C(=O)N[C@H](Cc1c[nH]cn1)C(=O)N[C@H](CCCNC(=N)N)C(=O)N1CCC[C@@H]1C(=O)N[C@H](CC(=O)O)C(=O)N[C@H](CCCCN)C(N)=O) [DV3]”, the IC50 with CXCR4 [1] was 0.44 µM. On to LGASWHRPDK [DV3], for which, at CXCR4 [2], the “CXCR4 binding potency relative to DV1” value was “about two-fold less potent than DV1”. With “LGASWHRPDKCCLGYQKRPLP ([dL]G[dA][dS][dW][dH][dR][dP][dD][dK][dC][dC][dL]G[dY][dQ][dK][dR][dP][dL][dP]-NH2; cysteine pairing not given here) [DV1]”, the IC50 with CXCR4 [1] was 0.236 µM. LGASWHRPDKCCLGYQKRPLP [DV1]: the “anti-HIV entry activity (in words)” value in the assay with HIV is “anti-HIV entry activity”. For the same sequence, the “CXCR4 binding affinity (in words), earlier work” value at CXCR4 [1] (in words) is listed as “moderate binding affinity with CXCR4”.
